# Experimental data reported in patent US20220378811A1, “VENETOCLAX DOSING REGIMENS FOR USE IN TREATING MYELODYSPLASTIC SYNDROMES IN COMBINATION WITH AZACITIDINE” (ABBVIE INC., priority 2021, published 2022).
# Assay: Phase 1b study in previously untreated higher-risk MDS: dose administration, dose reductions and cycle delays in SE1 and SE2
# Format: in vivo, human
# Details: for # of reductions in Venetoclax duration: reductions due to hematologic toxicity
# Description: Responses were evaluated using IWG 2006 criteria.
# Subjects who initiate a cycle of treatment with neutropenia, absolute neutrophil count <1.5×10^9/L, or thrombocytopenia, platelets <75×10^9/L, may be especially sensitive to cytopenias due to abnormal hematopoiesis resulting from the underlying […]. […] However, subjects who initiate a cycle of treatment with absolute neutrophil count 1.5×10^9/L and platelets 75×10^9/L and have a previous response of complete remission, partial remission, or marrow complete remission may require dose reduction, if subsequent absolute neutrophil count nadir <0.500×10^9/L, or platelets nadir <50×10^9/L, if baseline was >100×10^9/L, or platelets <50% if baseline was ≤100×10^9/L.
compound,measurement,setting,value
"CC1(C)CCC(CN2CCN(c3ccc(C(=O)NS(=O)(=O)c4ccc(NCC5CCOCC5)c([N+](=O)[O-])c4)c(Oc4cnc5[nH]ccc5c4)c3)CC2)=C(c2ccc(Cl)cc2)C1 [Venetoclax, 4-(4-{[2-(4-chlorophenyl)-4,4-dimethylcyclohex-1-en-1-yl]methyl}piperazin-1-yl)-N-({3nitro-4-[(tetrahydro-2H-pyran-4-ylmethyl)amino]phenyl}sulfonyl)-2-(1H-pyrrolo[2,3-b]pyridin5-yloxy)benzamide]","Venetoclax dose delay by end of Cycle 2, Median # days","SE1, n = 22",7.5 days
same,"Venetoclax dose delay by end of Cycle 3, Median # days","SE1, n = 22",14 days
same,"Venetoclax dose delay by end of Cycle 4, Median # days","SE1, n = 22",17 days
same,"Venetoclax dose delay by end of Cycle 5, Median # days","SE1, n = 22",14 days
same,"Venetoclax dose delay by end of Cycle 6, Median # days","SE1, n = 22",7 days
same,# of reductions in Venetoclax duration,"SE1, n = 22",3 (14)
same,"Venetoclax dose delay by end of Cycle 2, Median # days","SE2, n = 21",8 days
same,"Venetoclax dose delay by end of Cycle 3, Median # days","SE2, n = 21",8.5 days
same,"Venetoclax dose delay by end of Cycle 4, Median # days","SE2, n = 21",9 days
same,"Venetoclax dose delay by end of Cycle 5, Median # days","SE2, n = 21",14 days
same,"Venetoclax dose delay by end of Cycle 6, Median # days","SE2, n = 21",14 days
same,# of reductions in Venetoclax duration,"SE2, n = 21",0
